Experimental data from patent US20130123298A1, “PHARMACEUTICAL COMPOSITION FOR THE PREVENTION OF PERIOPERATIVE ARTERIAL HYPOTENSION IN HUMANS” (LABORATOIRE AGUETTANT, priority 2010, published 2013).

Tested on: adult patients under general anesthetic in noncardiac surgery
Format: in vivo, human
Protocol: The study covered 1,534 patients having received perioperative hemodynamic optimization with use of noradrenaline (in the form of noradrenaline tartrate) to maintain blood pressure under general anesthetic in noncardiac surgery in adults.
The hemodynamic surveillance is performed non-invasively as blood pressure is taken automatically every 2 minutes when inducing anesthesia, then every 5 minutes during the hemodynamic stability period.
Administration of noradrenaline in continuous perfusion with the solution titered at 10 μg/mL.
This solution is injected: • firstly as a continuous perfusion, in an automatic syringe pump, whose speed will be modulated as a function of the weight, age, and initial “blood pressure state” of the patient (notion of treated or untreated hypertension), of the presence or absence of epidural anesthesia combined with general anesthesia. • secondly as an isolated perfusion to prevent causing a bolus of NA during the injection of another drug in the perfusion tubing. This isolated perfusion is branched either on an extra venous catheter independent of the venous access used for the anesthetic, or on a multi-lumen catheter of a central venous path, or on a three-way tap located between the peripheral venous catheter and the end of the perfusion tubing.
The recommended dosages are 0.02 to 0.08 μg/kg/min of noradrenaline.
The suitable dosage is that which delivers blood pressure similar, within a limit of 20% of the preoperative blood pressure of the patient, and systolic blood pressure >100 mmHg
For general anesthetic, noradrenaline administration by continuous perfusion with the solution titered at 10 μg/mL must be started 3 to 4 minutes before inducing anesthesia to prevent hypotension caused by the anesthetic.
The patient is weaned off noradrenaline during the emergence phase by progressively reducing noradrenaline administration dosages as a function of how well the patient is returning to the preoperative blood pressure.
The study covered 1,534 patients 15 to 102 years old (average age 56 years old), with average weight 72 kg (extremes from 33 to 163 kg), mean preoperative blood pressure 138 mmHg (from 95 to 200 mmHg).
The induction procedure for general anesthetic is the same for all the patients: the patients receive 0.2 μg/kg of sufentanil, after 3 minutes 1.5 to 3 mg/kg propofol, then 0.15 mg/kg of cisatracurium.
The patients are intubated 3 minutes after the curare injection and ventilated with 8 mL/kg of theoretical weight.
Anesthesia is maintained using sevoflurane. The perioperative analgesia is handled by continuous injection of remifentanil and/or by iterative injection of sufentanil.
A continuous perfusion of noradrenaline in solution at 10 μg/mL of noradrenaline is administered 4 minutes before inducing anesthesia.
The dosages used are generally comprised between 0.02 and 0.08 μg/kg/min.
The patient is weaned off the continuous perfusion of the noradrenaline solution at 10 μg/mL in the emergence phase by progressively reducing the noradrenaline administration dosages as a function of how well the patient is returning to the preoperative blood pressure.
Clinically: non-invasive blood pressure surveillance is performed every 2 minutes when inducing anesthesia, then every 5 minutes during the hemodynamic stability period.
The quality of the perioperative hemostasis was always noted.
The following elements are systematically monitored and noted in the first 24 hours postoperative: agitation when waking, postoperative nausea and/or vomiting (PONY).
Biologically: troponin was assayed at D1 in 26.0% of patients judged to be at risk: 99.87% were at zero, one patient has a troponine assay at 0.04 and one patient at 0.05 μg/mL (significance threshold is 0.4 μg/mL). These patients were controlled again and their level had normalized at D2.
Urea and creatinine assay on D0 and D1 performed on 26.0% of the patients judged to be at higher risk. […]

[1] = general anesthetic combined with epidural anesthetic

SMILES: NC[C@H](O)c1ccc(O)c(O)c1 [noradrenaline, 4-[(1R)-2-amino-1-hydroxyethyl]benzene-1,2-diol]
- effect on blood pressure (continuous injection): immediate, brief, but without tachyphylaxis, long-lasting in continuous injection, rapidly reversible
- perioperative blood pressure control (five elderly patients with aortal stenosis and hip fracture, general anesthesia): controlled perioperative blood pressure during general anesthesia without cardiac incidents
- duration of blood pressure control [1]: up to 400 min
- tachyphylaxis and vascular filling during prolonged blood pressure control [1]: without tachyphylaxis and without excess vascular filling
- blood pressure control (hemodialyzed patients with renal failure, 0.05 to 0.08 μg/kg/min): blood pressure could be controlled
- cases of superficial venous thromboses detected (human, in vivo): five
- hypertension needing nicardipine 1 mg bolus as last resort (human, in vivo): 26 cases
- other undesirable effects (human, in vivo): No other undesirable effect
- patients with troponin at zero (human, in vivo): 99.87%
- perioperative urine flows (human, in vivo): net increase
- postoperative vomiting (human, in vivo): none of the patients
- renal function (urea and creatinine assay) (human, in vivo): no changes to renal function
- urea and creatinine postoperative value (human, in vivo): reduction of their postoperative value at D1
- postoperative nausea (human, in vivo, 24 h): 1.2%
- distal peripheral venous thrombosis complications (human, in vivo, 4 day): 0.32%
- lucidity at emergence and absence of agitation (independent of duration of intervention and patient age): noted in all patients
- health risk and surgical outcomes (patients over 80 years old (8.5%)): the health risk was controlled and surgical outcomes were simple
- quality of emergence (young patients without history, 0.02 μg/kg/h): better lucidity and quasi-disappearance of postoperative nausea and vomiting
